# Legend:
# [1] = Toxicity in Artemia salina (brine shrimp) assessed as death rate after 1.5 days (reference value: 5%); format: organism-based; conditions: in vivo, read-out: Activity
# Lactuca sativa = test: Inhibition of Lactuca sativa (lettuce) seed germination assessed as elongation of root by measuring germination rate (reference value: 75%); format: functional
SMILES,mortality at 36 h [1] [%],inhibition (INH) (Lactuca sativa) [%]
O=C1C=C[C@H]2O[C@H](c3ccccc3)[C@@H](O)[C@@H]2O1,48,63
O=C1C=C[C@H]2O[C@@H](c3ccccc3)[C@H](O)[C@H]2O1 [ENT-ALTHOLACTONE],31,5
O=C1C=C[C@H]2O[C@H](c3ccccc3)[C@H](O)[C@@H]2O1,31,56
O=C1C=C[C@@H]2O[C@H](c3ccccc3)[C@H](O)[C@@H]2O1 [(+)-ISOALTHOLACTONE],13,25
O=C1C=C[C@@H]2O[C@H](c3ccccc3)[C@@H](O)[C@@H]2O1 [ALTHOLACTONE],40,50
O=C1C=C[C@H]2O[C@H](c3ccccc3)[C@@H](O)[C@H]2O1 [ENT-ISOALTHOLACTONE],8,69

# — ChEMBL document CHEMBL3045764, “Synthesis of Both Enantiomers of Altholactone, Isoaltholactone and 5-Hydroxygoniothalamin from Tri-O-acetyl-D-glucal, and Their Biological Activities” (J Pestic Sci, 2001)
